Measured values as given in patent US20090005395A1 (Solvay Pharmaceuticals, B.V., priority 2007, published 2009).

Key:
PDE-I = experiment: In vitro inhibition of phosphodiesterases (CEREP): PDE-I; settings: bovine brain
PDE-VI = molecular target: T1, PDE-VI (Bos taurus, UniProt P11541+P23439); experiment: In vitro inhibition of phosphodiesterases (CEREP): PDE-VI
T1 sequence (P11541 2-856 limits assumed): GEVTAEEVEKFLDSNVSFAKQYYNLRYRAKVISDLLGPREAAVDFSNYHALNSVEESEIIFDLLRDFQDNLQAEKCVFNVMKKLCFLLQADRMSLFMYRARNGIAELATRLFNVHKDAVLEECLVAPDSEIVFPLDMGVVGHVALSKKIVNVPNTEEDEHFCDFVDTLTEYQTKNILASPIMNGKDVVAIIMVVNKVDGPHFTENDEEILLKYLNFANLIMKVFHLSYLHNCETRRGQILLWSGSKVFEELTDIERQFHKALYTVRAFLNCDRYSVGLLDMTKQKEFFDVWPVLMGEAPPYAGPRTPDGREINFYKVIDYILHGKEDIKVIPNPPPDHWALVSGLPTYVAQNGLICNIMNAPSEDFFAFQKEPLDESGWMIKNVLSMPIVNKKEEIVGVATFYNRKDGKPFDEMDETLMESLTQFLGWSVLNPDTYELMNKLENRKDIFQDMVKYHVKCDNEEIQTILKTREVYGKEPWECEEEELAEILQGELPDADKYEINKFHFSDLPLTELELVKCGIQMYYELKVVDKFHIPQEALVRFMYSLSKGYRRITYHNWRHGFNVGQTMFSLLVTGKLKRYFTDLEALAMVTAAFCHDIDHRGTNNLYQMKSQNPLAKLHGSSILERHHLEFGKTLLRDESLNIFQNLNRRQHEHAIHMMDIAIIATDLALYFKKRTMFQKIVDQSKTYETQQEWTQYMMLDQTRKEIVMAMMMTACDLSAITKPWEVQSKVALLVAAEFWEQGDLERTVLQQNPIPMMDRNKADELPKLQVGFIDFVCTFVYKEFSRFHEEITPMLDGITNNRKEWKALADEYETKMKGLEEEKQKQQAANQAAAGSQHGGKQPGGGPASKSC
T1 sequence (P23439 2-850 limits assumed): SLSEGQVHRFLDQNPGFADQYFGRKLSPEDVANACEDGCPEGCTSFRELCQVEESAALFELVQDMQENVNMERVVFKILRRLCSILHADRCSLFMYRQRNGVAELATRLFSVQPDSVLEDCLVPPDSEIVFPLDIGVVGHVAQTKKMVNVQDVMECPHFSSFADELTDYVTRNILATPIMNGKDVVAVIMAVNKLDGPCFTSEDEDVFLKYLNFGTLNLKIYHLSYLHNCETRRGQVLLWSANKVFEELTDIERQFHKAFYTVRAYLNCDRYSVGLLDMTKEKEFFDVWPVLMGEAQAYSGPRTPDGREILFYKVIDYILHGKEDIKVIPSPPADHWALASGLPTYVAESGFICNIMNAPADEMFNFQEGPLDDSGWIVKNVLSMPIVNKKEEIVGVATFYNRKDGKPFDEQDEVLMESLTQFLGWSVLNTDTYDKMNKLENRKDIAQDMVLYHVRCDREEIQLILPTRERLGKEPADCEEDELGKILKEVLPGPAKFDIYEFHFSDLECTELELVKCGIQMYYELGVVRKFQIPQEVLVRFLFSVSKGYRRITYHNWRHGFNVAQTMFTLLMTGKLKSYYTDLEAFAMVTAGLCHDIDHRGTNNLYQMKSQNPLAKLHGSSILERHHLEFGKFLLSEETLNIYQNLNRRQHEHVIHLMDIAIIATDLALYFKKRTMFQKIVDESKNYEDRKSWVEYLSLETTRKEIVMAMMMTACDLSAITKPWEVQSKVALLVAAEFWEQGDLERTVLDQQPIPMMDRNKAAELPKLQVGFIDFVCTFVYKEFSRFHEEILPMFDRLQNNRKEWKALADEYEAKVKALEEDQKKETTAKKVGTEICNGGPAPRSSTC

pIC50 PDE-I (PDE-I): 5.8 | IC50 (PDE-VI): 1000 nM
Structure (SMILES): CCCc1nn(C)c2c(=O)[nH]c(-c3cc(S(=O)(=O)N4CC[N+](C)([O-])CC4)ccc3OCC)nc12 [Sildenafil-N-oxide, 1-[[3-(6,7-dihydro-1-methyl-7-oxo-3-propyl-1H-pyrazolo[4,3-d]pyrimidin-5-yl)-4-ethoxyphenyl]sulfonyl]-4-methyl-4-oxido-piperazine]
